Experimental data published in patent US11690824B2, “Antibacterial compounds” (THE GENERAL HOSPITAL CORPORATION, priority 2018, dated 2023).
Converted amounts (≈) assume the structure as drawn. Like-named read-outs stand apart in the source and are kept apart here.

How the values were obtained:
[1] = test system: E. aerogenes ATCC 13048; experiment: MIC assay; assay type: cell-based, Enterobacter aerogenes; conditions: for MIC: Klebsiella aerogenes
Excerpt: (§1) Bacterial strains, growth conditions, and persister isolation. Methicillin-resistant S. aureus strains, MW2 BAA-1707, ATCC 33591, and JE2, methicillin-susceptible S. aureus strains, NCTC 8325, Newman, and ATCC 29213, vancomycin-resistant S. aureus strain, VRS1, Enterococcus faecium E007, vancomycin-resistant E. faecium strains, C68,^7 WB312, and WC196, Klebsiella pneumoniae WGLW2 (BEI Resources, Manassas, Va., USA), Acinetobacter baumannii ATCC 17978, Pseudomonas aeruginosa PA14, and Enterobacter aerogenes ATCC 13048 were used to test antimicrobial activity (Table 1). S. aureus strains were grown in tryptic soy broth (TSB) (BD, Franklin Lakes, N.J., USA), and E. faecium was grown in brain-heart infusion (BHI) broth (BD, Franklin Lakes, N.J., USA) at 37° C. K. pneumoniae, A. baumannii, P. aeruginosa, and E. aerogenes were grown in Luria Bertani (LB) broth (BD, Franklin Lakes, N.J., USA) at 37° C.
(§2) Minimal inhibitory concentration (MIC) assay. The MICS of antibiotics were determined by the standard micro-dilution method recommended by the Clinical and Laboratory Standards Institute. MIC assays were conducted in biological triplicate.

[2] = test system: K. pneumoniae WGLW2; experiment: MIC assay; assay type: cell-based, Klebsiella pneumoniae; conditions: for MIC: Klebsiella pneumoniae
Excerpt: as §1, §2

[3] = test system: MRSA MW2; experiment: Serial passage resistance development; assay type: cell-based, S. aureus; conditions: 25 days, sub-MIC concentrations
Method: Serial passage resistance development. […] Briefly, an extended range of concentrations of nTZDpa was generated by two-fold serial dilution with cation-adjusted Mueller Hinton (CaMH) broth (Difco, Detroit, USA) from three different starting concentrations (20, 24, and 32 μg/mL) covering 0.1875 to 32.0 μg/mL, which extended over three rows of the 96-well plate. Three sets of the extended gradient of nTZDpa were created in the 96-well plate to provide triplicates of the experiment. […] MRSA MW2 overnight cultures were adjusted to 1×10^6 CFU/mL in CaMH broth, and 50 μL of the diluted cultures were dispensed into the 96-well plates containing 50 μL of the extended gradient of antibiotics. After incubation for 24 h at 35° C., bacterial growth was determined by measuring optical density at 600 nm using a SpectraMax plate reader (Molecular Devices, Sunnyvale, Calif.), and growth was defined as an optical density reading of ≥0.1. Bacterial cells growing at the highest concentration of the antimicrobial (just below the MIC) were diluted 1:1000 in CaMH broth and then used to inoculate the next day's serial-passage plate. The remaining bacterial cells were stored at −80° C. in CaMH broth with 16% glycerol. This process was repeated for 25 days.

[4] = test system: E. faecium WB312; experiment: MIC assay; assay type: cell-based, Enterococcus faecium; conditions: for MIC: Enterococcus faecium
Excerpt: as §1, §2

[5] = test system: E. faecium C68; experiment: MIC assay; assay type: cell-based, Enterococcus faecium; conditions: for MIC: Enterococcus faecium
Excerpt: as §1, §2

[6] = test system: E. faecium WC196; experiment: MIC assay; assay type: cell-based, Enterococcus faecium; conditions: for MIC: Enterococcus faecium
Excerpt: as §1, §2

[7] = test system: E.faecium E007; experiment: MIC assay; assay type: cell-based, Enterococcus faecium; conditions: for MIC: Enterococcus faecium
Excerpt: as §1, §2

[8] = test system: P. aeruginosa PA14; experiment: MIC assay; assay type: cell-based, Pseudomonas aeruginosa; conditions: for MIC: Pseudomonas aeruginosa
Excerpt: as §1, §2

[9] = test system: S. aureus NCTC 8325; experiment: MIC assay; assay type: cell-based; conditions: for MIC: Staphylococcus aureus
Excerpt: as §1, §2

[10] = test system: S. aureus ATCC 33591; experiment: MIC assay; assay type: cell-based; conditions: for MIC: Staphylococcus aureus
Excerpt: as §1, §2

[11] = test system: S. aureus VRS1; experiment: MIC assay; assay type: cell-based; conditions: for MIC: Staphylococcus aureus
Excerpt: as §1, §2

[12] = test system: S. aureus Newman; experiment: MIC assay; assay type: cell-based; conditions: for MIC: Staphylococcus aureus, read-out: Minimum inhibitory concentration
Excerpt: as §1, §2

[13] = test system: S. aureus JE2; experiment: MIC assay; assay type: cell-based; conditions: for MIC: Staphylococcus aureus
Excerpt: as §1, §2

[14] = test system: A. baumannii ATCC 17978; experiment: MIC assay; assay type: cell-based, Acinetobacter baumannii; conditions: for MIC: Acinetobacter baumannii
Excerpt: as §1, §2

[15] = test system: S. aureus (MRSA) MW2; experiment: Minimal inhibitory concentration (MIC) assay, micro-dilution; assay type: cell-based
Excerpt: as §1, §2

[16] = test system: S. aureus ATCC 29213; experiment: MIC assay; assay type: cell-based
Excerpt: as §1, §2

[17] = test system: exponential-phase MRSA MW2; experiment: Killing kinetics assay; assay type: cell-based, S. aureus; conditions: 32 μg/ml (32× MIC), after 4 hours
Method: Killing kinetics assay. An MRSA MW2 overnight culture was diluted 1:10,000 in 25 mL TSB (˜10^5 CFU/mL) in a 250 mL flask and incubated at 37° C. with shaking at 200 rpm for 4.5 h until it reached exponential-phase (˜2×10^7 CFU/mL). 1 mL of the exponential phase cell culture was mixed with 1 mL of pre-warmed TSB containing twice the desired concentrations of antibiotics in a 96-well assay block (Corning Costar 3960). The assay block was incubated at 37° C. with shaking at 200 rpm. At every hour, 400 μl aliquots were taken, washed once with phosphate buffered saline (PBS), serially diluted and spot-plated onto tryptic soy agar (TSA, BD) plates. After incubation at 37° C. for overnight, colonies were counted to enumerate the number of cells. These experiments were conducted in biological triplicate.

[18] = test system: MRSA MW2; experiment: Deep-seated mouse thigh infection model; assay type: in vivo; conditions: vancomycin 25 mg/kg i.p., gentamicin 30 mg/kg s.c., nTZDpa 50 mg/kg i.p., 5 days
Method: Deep-seated mouse thigh infection model. In vivo efficacy of nTZDpa alone or in combination with gentamicin against MRSA persisters was evaluated by a previously described neutropenic mouse thigh infection model with modifications. Six-week-old female CD-I mice (20-25 g, Charles River Laboratories, Wilmington, Mass., USA) were obtained from Charles River Laboratories (Wilmington, Mass., USA). The CD-I mice were rendered neutropenic by administering 150 mg/kg and 100 mg/kg of cyclophosphamide intraperitoneally (i.p.) at 4 days and 1 day before infection, respectively. On the day of infection, overnight culture of MRSA MVV2 was washed 3-time with sterile saline and diluted to 10^7 CFU/ml in the saline. 50 μl of the diluted culture (5×10^5 CFU per mouse) was injected to the right thigh of each mouse. nTZDpa was dissolved in Kolliphor EL (Sigma-Aldrich, St Louis, Mo., USA)/ethanol 1:1 and then diluted 1:10 in saline to a final concentration of 50 mg/kg. At 24 h post-infection, groups of mice (n=10) were treated with 30 mg/kg gentamicin subcutaneously (s.c.) every 12 h, 25 mg/kg vancomycin i.p. every 24 h, 50 mg/kg nTZPpa i.p. every 24 h, or the combination of 50 mg/kg nTZDpa i.p. every 24 h and 30 mg/kg gentamicin s.c. every 12 h for 5 days. Control mice were injected with 250 μl of 10% Kolliphor EL/ethanol in saline i.p. every 24 h for 5 days. Mice were euthanized at 96 h post-infection. Blood was collected by cardiac puncture, and the infected thighs were aseptically excised, weighed, and stored at 4° C. until homogenization. To evaluate hepatic and renal toxicities, the levels of alanine aminotransferase and blood urea nitrogen were analyzed with commercially available kits, following the manufacturer's protocol (Pointe Scientific, Canton, Mich., USA). Thighs were homogenized in PBS, serially diluted with PBS, and spot-plated on TSA plates. […] Statistical significance among each group was analyzed by one-way ANOVA with post-hoc Tukey test using PASW Statistics 18 (SPSS Inc. Chicago, Ill., USA).

[19] = test system: MRSA MW2; experiment: Antibiotic synergy test (checkerboard); assay type: cell-based, S. aureus; conditions: nTZDpa in combination with the named antibiotic, synergy if FICI ≤ 0.5
Method: Antibiotic synergy test. Antibiotic synergism was evaluated by the checkerboard method. Briefly, 2-fold serial dilutions of nTZDpa were combined with 2-fold serial dilutions of each other antibiotic, which created an 8×8 matrix in a 96-well microtiter plate. The fractional inhibitory concentration index (FICI) was calculated as follows: FICI=MIC of compound A in combination/MIC of compound A alone+MIC of compound B in combination/MIC of compound B alone. The interaction between two compounds was defined, as follows: synergy if FICI≤0.5, no interaction if 0.5<FICI≤4, and antagonism if FICI>4.

O=C(O)c1cn(C2CC2)c2cc(N3CCNCC3)c(F)cc2c1=O [Ciprofloxacin, ciprofloxacin]
MIC ([1]; ATCC13048, E. aerogenes ATCC 13048, read-out: Minimum inhibitory concentration): 0.031 µg/mL (≈ 0.0936 µM)
MIC ([2]; K. pneumoniae WGLW2, read-out: Minimum inhibitory concentration): 0.031 µg/mL (≈ 0.0936 µM)
increase of MIC over wild-type after serial passage [3]: 32 fold
MIC ([4]; E. faecium WB312, read-out: Minimum inhibitory concentration): 32 µg/mL (≈ 96.6 µM)
MIC ([5]; E. faecium C68, read-out: Minimum inhibitory concentration): > 64 µg/mL
MIC ([6]; E. faecium WC196, read-out: Minimum inhibitory concentration): 1 µg/mL (≈ 3.02 µM)
MIC ([7]; E.faecium E007, read-out: Minimum inhibitory concentration): > 64 µg/mL
MIC ([8]; P. aeruginosa PA14, read-out: Minimum inhibitory concentration): 0.063 µg/mL (≈ 0.19 µM)
MIC ([9]; NCTC8325, S. aureus NCTC 8325, read-out: Minimum inhibitory concentration): 0.125 µg/mL (≈ 0.377 µM)
MIC ([10]; ATCC33591, S. aureus ATCC 33591, read-out: Minimum inhibitory concentration): 0.25 µg/mL (≈ 0.754 µM)
MIC ([11]; S. aureus VRS1, read-out: Minimum inhibitory concentration): 64 µg/mL (≈ 193 µM)
MIC ([12]; S. aureus Newman): 0.25 µg/mL (≈ 0.754 µM)
MIC ([13]; S. aureus JE2, read-out: Minimum inhibitory concentration): 16 µg/mL (≈ 48.3 µM)
MIC ([14]; ATCC17978, A. baumannii ATCC 17978, read-out: Minimum inhibitory concentration): 0.25 µg/mL (≈ 0.754 µM)

Cc1onc(-c2ccccc2)c1C(=O)N[C@@H]1C(=O)N2[C@@H]1SC(C)(C)[C@@H]2C(=O)O [Oxa, oxacillin]
Minimum inhibitory concentration ([15]; S. aureus (MRSA) MW2): 64 µg/mL (≈ 159 µM)
Minimum inhibitory concentration ([1]; E. aerogenes ATCC 13048): >64 µg/mL
Minimum inhibitory concentration ([2]; K. pneumoniae WGLW2): >64 µg/mL
Minimum inhibitory concentration ([4]; E. faecium WB312): >64 µg/mL
Minimum inhibitory concentration ([5]; E. faecium C68): >64 µg/mL
Minimum inhibitory concentration ([6]; E. faecium WC196): >64 µg/mL
Minimum inhibitory concentration ([7]; E.faecium E007): >64 µg/mL
Minimum inhibitory concentration ([8]; P. aeruginosa PA14): >64 µg/mL
Minimum inhibitory concentration ([9]; S. aureus NCTC 8325): 0.5 µg/mL (≈ 1.25 µM)
Minimum inhibitory concentration ([10]; S. aureus ATCC 33591): >64 µg/mL
Minimum inhibitory concentration ([11]; S. aureus VRS1): >64 µg/mL
Minimum inhibitory concentration ([12]; S. aureus Newman): 0.5 µg/mL (≈ 1.25 µM)
Minimum inhibitory concentration ([13]; S. aureus JE2): 64 µg/mL (≈ 159 µM)
Minimum inhibitory concentration ([16]; S. aureus ATCC 29213): 0.5 µg/mL (≈ 1.25 µM)
Minimum inhibitory concentration ([14]; A. baumannii ATCC 17978): >64 µg/mL

CN[C@H](CC(C)C)C(=O)N[C@H]1C(=O)N[C@@H](CC(N)=O)C(=O)N[C@H]2C(=O)N[C@H]3C(=O)N[C@H](C(=O)N[C@H](C(=O)O)c4cc(O)cc(O)c4-c4cc3ccc4O)[C@H](O)c3ccc(c(Cl)c3)Oc3cc2cc(c3O[C@@H]2O[C@H](CO)[C@@H](O)[C@H](O)[C@H]2O[C@H]2C[C@](C)(N)[C@H](O)[C@H](C)O2)Oc2ccc(cc2Cl)[C@H]1O [Vancomycin, vancomycin]
MIC ([15]; Staphylococcus aureus, MRSA, read-out: Minimum inhibitory concentration): 1 µg/mL (≈ 0.69 µM)
decrease in viability [17]: 2 log
MRSA CFUs / viability of persisters in thigh, single agent [18]: neither vancomycin nor gentamicin reduced MRSA CFUs
MIC ([1]; ATCC13048, read-out: Minimum inhibitory concentration): > 64 µg/mL
FICI (fractional inhibitory concentration index) [19]: 1
MIC ([2]; WGLW2, read-out: Minimum inhibitory concentration): > 64 µg/mL
MIC ([4]; WB312, read-out: Minimum inhibitory concentration): 16 µg/mL (≈ 11 µM)
MIC ([5]; C68, read-out: Minimum inhibitory concentration): 64 µg/mL (≈ 44.2 µM)
MIC ([6]; WC196, read-out: Minimum inhibitory concentration): 64 µg/mL (≈ 44.2 µM)
MIC ([7]; E007, read-out: Minimum inhibitory concentration): 1 µg/mL (≈ 0.69 µM)
MIC ([8]; PA14, read-out: Minimum inhibitory concentration): > 64 µg/mL
MIC ([9]; NCTC8325, read-out: Minimum inhibitory concentration): 1 µg/mL (≈ 0.69 µM)
MIC ([10]; ATCC33591, read-out: Minimum inhibitory concentration): 2 µg/mL (≈ 1.38 µM)
MIC ([11]; VRS1, read-out: Minimum inhibitory concentration): > 64 µg/mL
MIC ([12]; NEWMAN): 2 µg/mL (≈ 1.38 µM)
MIC ([13]; JE2, read-out: Minimum inhibitory concentration): 1 µg/mL (≈ 0.69 µM)
MIC ([16]; Staphylococcus aureus, ATCC29213, read-out: Minimum inhibitory concentration): 1 µg/mL (≈ 0.69 µM)
MIC ([14]; ATCC17978, read-out: Minimum inhibitory concentration): > 64 µg/mL
